# Calls of active or inactive are those of the source. The rule behind the calls is not given here.
# Assay: reduced viability of parasite-Hsp90 expressing yeast – ATP luminescence, 48 h, cherry-picked samples, anti-malarial Hsp90 inhibitor project, dose response (AID 540268);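 for activity change, negative = inhibition: 0% = neutral control wells and -100% = positive control wells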
# Conditions: yeast expressing the parasite Hsp90, ATP luminescence
row,Compound,AC50 [µM]
1,O=[N+]([O-])/C=C\c1ccc(N2CCCC2)c(F)c1,6.27
2,O=C1/C(=C\c2ccc(Cl)cc2)CCC1CNc1ccc(Cl)cc1 (configuration not stated),< 0.195
3,Cc1ccc2c(c1)C(=O)C(=O)N2Cc1ccc(C(F)(F)F)cc1,7.78
4,Cc1[nH]n(-c2ccccc2)c(=O)c1C(C[N+](=O)[O-])c1ccc(Br)cc1 (configuration not stated),8.54
5,CC(C)(C)C(=O)C(Cl)C(=O)Nc1ccccc1 (configuration not stated),1.06
6,O=C1C(F)=CC(COC(c2ccccc2)(c2ccccc2)c2ccccc2)OC1n1cc(F)c(=O)[nH]c1=O (configuration not stated),0.718
7,COc1ccc(-c2nc(-c3ccccn3)no2)cc1,16.2
8,CCCCCCOc1ccc(N2C(=O)CC(N3CCC(C(=O)OCC)CC3)C2=O)cc1 (configuration not stated),4.38
9,CC(C)N=c1scc(-c2cccs2)n1/N=C/c1ccc(O)c(O)c1O,7.43
10,COc1ccc(-c2nn(-c3ccccc3)cc2C(=O)N2CCN(S(=O)(=O)c3cccc(F)c3)CC2)cc1,1.15
11,CCn1c(CNc2ccc(Cl)cc2)nnc1SCc1ccc(Cl)cc1,4.37
12,COc1ccc2c3c(ccc2c1)C(=O)/C(=C/O)CC3,4.29
13,Oc1c(C(Nc2nc3ccccc3s2)c2ccco2)ccc2cccnc12 (configuration not stated),24.8
14,CC(C)CC(=O)NC(c1cccs1)c1ccc2cccnc2c1O (configuration not stated),2.72
15,O=c1c(-c2ccccc2)c(-c2ccccc2)oc2cc(O)cc(O)c12,8.72
16,CC(C)=CCc1cc([C@@H]2COc3c(ccc4c3C=CC(C)(C)O4)C2)c(O)cc1O,0.265
17,CCC(C)(C)n1nnnc1C(c1cccnc1)N1CCC(Cc2ccccc2)CC1 (configuration not stated),1.52
18,COc1ccc(N2CCN(C(=O)c3ccc(Br)cc3)CC2)c([N+](=O)[O-])c1,0.497
19,CC1(C)C=Cc2c(ccc3c2OC[C@H](c2ccc(O)cc2O)C3)O1,4.6
20,O=C(O)c1ccccc1NC(c1ccccc1)c1ccc2cccnc2c1O (configuration not stated),4.87
21,O=C(/C=C/c1ccccn1)c1cc(Br)ccc1O,1.01
22,CC(=O)NC(c1ccc(C(C)C)cc1)c1ccc2cccnc2c1O (configuration not stated),2.24

row,Compound,AC50 [µM]
1,O=C(N/N=C/c1c(O)ccc2ccccc12)c1cccc(C(F)(F)F)c1,2.86
2,N/C(Cc1ccc(Cl)cc1Cl)=N\OC(=O)c1cccs1,6.39
3,Cc1ccc(N/N=C(\C#N)C(N)=S)c(C)c1,1.32
4,C/C(=N\Nc1ncnc2sc(C)c(C)c12)c1ccccn1,2.01
5,CCCc1cc(=O)oc2cc(OCc3ccc(C(=O)O)cc3)ccc12,2.73
6,O=C(Nc1nc(-c2cccs2)cs1)c1ccc([N+](=O)[O-])o1,5.69
7,COC(=O)C1CN(C#N)N(c2ccc(Cl)cc2)C12c1ccccc1-c1ccccc12 (configuration not stated),4.07
8,COc1ccc(C(C[N+](=O)[O-])c2c(C)[nH]n(-c3ccccc3)c2=O)cc1 (configuration not stated),7.77
9,CCc1ccc(NC(=O)c2nc(S(=O)(=O)Cc3ccccc3)ncc2Cl)cc1,3.5
10,Cc1ccc(NC(=O)c2cc(N3C(=O)C=CC3=O)ccc2N2CCOCC2)cc1,0.605
11,O=C(N/N=C/c1ccc(O)c2ncccc12)c1cccc(Br)c1,5.08
12,Cc1cc(C(C)(C)CC(C)(C)C)ccc1OCCOCC[N+](C)(C)Cc1ccccc1,7.8
13,CC(C)Oc1ccc(C(=O)/C=C2/C(=O)Nc3ccccc32)cc1,2.62
14,CC(C)(C)c1ccc(-n2nc(C#N)c(Cl)cc2=O)cc1,4.31
15,CCN(CC)c1ccc(C(=C2C=CC(=[N+](CC)CC)C=C2)c2ccccc2)cc1,1.09
16,CCCCCCCCCCCCCCCC[n+]1cccc2ccccc21,3.05
17,O=C1CC(c2ccccc2)=NN1c1nc(-c2ccccc2)cs1,1.14
18,CCC1C/C(=C\c2cccnc2)C(=O)/C(=C/c2cccnc2)C1 (configuration not stated),9.06
19,COc1ccc(NC(=O)/C(Cl)=C(/Cl)S(=O)Cc2ccccc2)cn1 (configuration not stated),2.54
20,COc1ccc2c(c1)c(=Cc1ccc(N(C)C)cc1)c1cc(-c3ccccc3)[n+](C)n12,6.32
21,CCN(C(=O)C1CCCN(c2nc(-c3ccc(OC)cc3)no2)C1)c1ccc(OC)cc1 (configuration not stated),4.85
22,CC(=NNC(=S)N1CCN(c2ccccn2)CC1)c1nccs1,2.58

row,Compound,AC50 [µM]
1,O=C(/C=C/c1cccc(C(F)(F)F)c1)Nc1cccc(C(F)(F)F)c1,8.08
2,Cn1c(CNc2ccc(Cl)cc2)nnc1SCc1ccccc1,3.43
3,CC(C)Cn1c(=O)c(C(=O)Nc2ccncc2)c(O)c2ccccc21,8.25
4,O=C(C=Cc1cccc(O)c1)c1ccccc1O,1.89
5,O=C(NNC1=C(C(=O)C(F)(F)F)CCC1)c1ccc(Br)cc1,0.759
6,Cc1cc(Cl)ccc1C(=O)C1CCCN(C(=O)c2cncs2)C1 (configuration not stated),4.62
7,CN1CCN(C(c2ccccn2)c2cc(Cl)c3cccnc3c2O)CC1 (configuration not stated),7.88
8,Cc1cccc(CS(=O)(=O)c2ncc(Cl)c(C(=O)Nc3ccc(F)cc3)n2)c1,2.92
9,Cc1cc(-c2n[nH]c(=S)n2/N=C/C(Br)=C/c2ccccc2)n[nH]1,15
10,CC(=O)Oc1ccccc1C(=O)C=Cc1cccc([N+](=O)[O-])c1,1.66
11,COc1cc(/C=C/C(=O)c2ccc([N+](=O)[O-])o2)ccc1O,2.02
12,Cc1nnc(N=c2ssnc2Cl)o1,1.03
13,COc1ccc(N(C(=O)c2ccncc2)S(=O)(=O)c2ccc(Cl)cc2)cc1,0.562
14,CNc1ccc2oc(C[C@H]3O[C@@]4(CC[C@H]3C)O[C@H]([C@H](C)C(=O)c3ccc[nH]3)[C@H](C)C[C@H]4C)nc2c1C(=O)O,0.813
15,F[B-](F)(F)c1cc2cc(Br)ccc2s1,6.2
16,CCCCCCCCCCCCCCCC[N+](C)(C)CC,4.04
17,CCOC(=O)/C(=C/c1ccc(OC(=O)c2ccccc2)cc1)C(C)=O,1.43
18,CCCC(=O)NC(c1ccc(OC)cc1)c1ccc2cccnc2c1O (configuration not stated),6.15
19,CC[C@H](C)/C=C(C)/C=C/C1=CC2=C(Cl)C(=O)[C@](C)(OC(C)=O)C(=O)C2=CO1,2.11
20,O=C1C=CC(=O)N1c1ccc(O)cc1,1.44
21,Cc1ccc(C(=O)c2coc3c2C(=O)C(=O)c2ccccc2-3)cc1,8.16
22,S=C1Cc2ccccc2N1,3.36

row,Compound,AC50 [µM]
1,CCCCCCC(=O)N(O)C1CC(=O)N(c2ccc(C)cc2)C1=O (configuration not stated),0.829
2,O=C1C2C3C=CC(C3)C2C(=O)N1CN(Cc1ccccc1)CN1C(=O)C2C3C=CC(C3)C2C1=O (configuration not stated),16.6
3,Cc1sc2ncnc(N/N=C/c3ccccc3O)c2c1C,4.4
4,CC1(c2nnc(Cc3ccccc3)o2)CC(c2ccccc2[N+](=O)[O-])=NO1 (configuration not stated),1.77
5,O=C1/C(=C\c2ccc(Cl)c(Cl)c2)CN(C(=O)CCN2CCOCC2)C/C1=C/c1ccc(Cl)c(Cl)c1,3.5
6,O=C(c1ccc(-c2ccccc2)cc1)C1CCCN(C(=O)c2cncs2)C1 (configuration not stated),2.72
7,O=C(Oc1ccc(Cl)c2cccnc12)c1cccnc1,7.85
8,COc1ccc(C(=O)COC(=O)c2cc([N+](=O)[O-])ccc2N2CCOCC2)c(OC)c1,13.8
9,O=C(Nc1ccccc1)C(Cl)C(=O)c1ccccc1 (configuration not stated),0.532
10,CC(=O)NC(c1ccc2ccccc2c1)c1ccc2cccnc2c1O (configuration not stated),1.75
11,CCCCC(=O)NC(c1ccco1)c1cc(Cl)c2cccnc2c1O (configuration not stated),4.6
12,c1ccc(-c2nnc(-c3ccccn3)nc2NC2CCCCC2)cc1,0.393
13,CCCCC(=O)NC(c1ccc(C(C)C)cc1)c1ccc2cccnc2c1O (configuration not stated),6.98
14,CC(=NNC(=S)N(Cc1ccccn1)Cc1ccccn1)c1cnccn1,3.95
15,O=C1C=CC(=O)N1c1ccc(N2CCCCC2)cc1,0.312
16,[O-][n+]1cccc2c(Br)cc(Br)c(O)c21,3.55
17,Cc1cccc(C)c1N=Nc1c(C)cc(O)cc1C,8.29
18,Cc1ccc(N2C(=O)C3C4C=CC(CNC(=S)Nc5ccc(Cl)cc5)(O4)C3C2=O)cc1 (configuration not stated),11.9
19,Cc1ccc(S(=O)(=O)N(C(=O)c2ccncc2)c2ccc(OC(=O)c3ccncc3)cc2)cc1,0.863
20,O=C(Nc1ccccc1N1CCOCC1)c1ccc([N+](=O)[O-])o1,4.41
21,Cc1ccc(NC(=O)c2cc(N3C(=O)C=CC3=O)ccc2Cl)cc1C,0.92
22,CC(=O)Nc1ccc2c(c1)Cc1cc(N3C(=O)C=CC3=O)ccc1-2,0.654

row,Compound,AC50 [µM]
1,Clc1ccc2[nH]c3c(c2c1)CCc1cn[nH]c1-3,8.79
2,CCOC(=O)C1=C(N)N2C(=O)C(C)SC2=C(C(=O)OC)C1c1ccccc1OC (configuration not stated),0.706
3,CC1=CC(C)CC(C)OC(=O)CC(c2ccc(O)cc2)NC(=O)C(Cc2c(Br)[nH]c3ccccc23)N(C)C(=O)C(C)NC(=O)C(C)C1 (configuration not stated),5.2
4,CCCNC(=O)c1nnsc1S(=O)(=O)c1ccc(Cl)cc1,0.758
5,O=C1Nc2ccc(Br)cc2/C1=C/C(=O)c1ccccc1,1.42
6,COc1ccc(OC)c(N2C(=O)NC(=O)/C(=C/c3ccc([N+](=O)[O-])s3)C2=O)c1,4.26
7,CCN1/C(=C/c2ccc3cc(C)cc(C)c3[n+]2CC)Sc2cc(C)ccc21,2.91
8,O=C(Nc1nc(-c2ccccn2)cs1)c1cc2ccccc2o1,4.24
9,Clc1ccc(COC(Cn2ccnc2)c2ccc(Cl)cc2Cl)cc1 (configuration not stated),< 0.195
10,CN1CCN(C(c2ccc(Br)cc2)c2cc(Cl)c3cccnc3c2O)CC1 (configuration not stated),0.535
11,O=C1CC(c2ccccc2)CC(O)=C1C=Nc1cccc(Cl)c1 (configuration not stated),3.26
12,CC1=C(C(=O)OCc2ccccc2)C(/C=C/c2ccccc2)NC(=S)N1 (configuration not stated),< 0.195
13,O=C(N/N=C\c1c(O)ccc2ccccc12)c1cncc(Br)c1,4.28
14,O=C(O)c1cccc(N/N=C/c2cc(Br)cc(Br)c2O)c1,1.15
15,Cc1cc(N2CCN(C(=O)c3ccco3)CC2)n2nc(C)c(-c3ccccc3)c2n1,8.36
16,Oc1cccc2ccc(/C=C/c3ccccc3Br)nc12,16.9
17,COc1cc2c(cc1OC)C(=O)N1[C@H]3c4ccccc4OC[C@@H]3[C@H](c3ccccc3)[C@]1(C)C(=O)N2,8.37
18,Cc1ccc(OCC(=O)NNC(=S)NC(=O)C(C)(C)C)c(Br)c1,5.05
19,CCCOc1ccc(N2C(=O)CC(N3CCC(C(=O)OCC)CC3)C2=O)cc1 (configuration not stated),6.07
20,O=C(O)c1cccc2c1Cc1cc(Cl)ccc1-2,1.13

# Same assay, conditions: yeast expressing the parasite Hsp90, ATP luminescence, at 26 µM (top of the series)
row,Compound,"activity change, negative = inhibition"
1,O=C1C(=C(I)I)c2ccccc2-c2ccccc21,26.6% (inactive)
2,CCOC(=O)c1cc([N+](=O)[O-])cc([N+](=O)[O-])c1Sc1ncnc2nc[nH]c12,-6.96% (inactive)
3,COc1cc(N=c2ssnc2Cl)c(OC)cc1Cl,-119% (inactive)
4,Cc1cc(/C=c2\sc3nc4ccccc4n3c2=O)c(C)n1-c1ccc(C(=O)O)cc1,22.6% (inactive)
